Source: US7659310B2, “Methods of enhancing solubility of agents” (Formatech, Inc., priority 2004, dated 2010)
≈ marks a conversion by molar mass, not a printed value. Where “and” joins values, the source holds several entries; their conditions need not be identical. Equal entries are not always repeated. Where two headings read alike, the source gives them in different places. Each block holds one compound with its values, some of them ahead of it.

What was measured:
[1] = physchem; conditions: for solubility: aqueous with cosolvent or surfactant or cyclodextrin
Protocol: (§1) Ethanolamine (8 μL) was subsequently added and mixed using a VORTEX®. After mixing, the sample was dispersed in 466 μL of water for injection.
(§2) Ethanolamine (62 μL) was subsequently added and mixed using a VORTEX®. After mixing, the sample was dispersed in 784 μL of water for injection.
(§3) Digoxin (1 mg) was added to 28 μL of oleic acid and mixed using VORTEX. Ethanolamine (6 μL) was subsequently added and mixed using a VORTEX®. After mixing, the sample was dispersed in 966 μL of water for injection.
(§4) Digoxin (1 mg) was added to 1 mL of 0.25 M sodium oleate and mixed using a VORTEX®.
(§5) N-acetylsalicylic acid (18 mg) was added to 31 μL of oleic acid and mixed using a VORTEX®. Ethanolamine (6 μL) was subsequently added and mixed using a VORTEX®. After mixing, the sample was dispersed in 963 μL of water for injection.
(§6) N-acetylsalicylic acid (25 mg) was added to 1 mL of 0.25 M sodium oleate and mixed using a VORTEX®.
(§7) Paclitaxel (18 mg) was added to 31 μL of oleic acid and mixed using a VORTEX®. Ethanolamine (6 μL) was subsequently added and mixed using a VORTEX®. After mixing, the sample was dispersed in 963 μL of water for injection.
(§8) Paclitaxel (5.6 mg) was added to 1 mL of 0.1 M sodium oleate and mixed using a VORTEX®.
(§9) Paclitaxel (2 mg) was added to 1 mL of 1 M sodium caprylate and mixed by a VORTEX®.
Paclitaxel (7.2 mg) was added to 1 mL of 1 M sodium linoleate and mixed using a VORTEX®.
For example, β-Lapachone was dissolved (25 mg/mL) in ethanol:oleic acid (EtOH:OA) at volume to volume ratios of 70%:30%, 75%:25%, or 80%:20% EtOH:OA.
In another example, β-Lapachone was dissolved (50 mg/mL) in dimethylsulfoxide:oleic acid (DMSO:OA) at volume to volume ratios of 60%:40, 70%:30% DMSO:OA or in DMSO:EtOH:OA (30%:30%:40% v/v).
For example, Propofol (1% v/v or 10 mg/mL) was dissolved in 100 mM sodium oleate in 5% (w/v) dextrose in water for injection. The resulting solution containing 1% Propofol was lyophilized.
For example, Paclitaxel (5 mg/mL) was dissolved in 100 mM sodium oleate in 100% ethanol. Ethanol was completely evaporated using rotary evaporation at 20° C. The Paclitaxel-sodium oleate was reconstituted with WFI or 2.5% glycerol to provide 5 mg/mL, 10 mg/mL, or 20 mg/mL concentration of Paclitaxel.

[2] = Stability of the solubilized compound (remains soluble) by reverse phase HPLC
Protocol: as §1, §2, §3, §4, §5, §6, §7, §8, §9
Paclitaxel (7.2 mg) was added to 1 mL of 1 M sodium linoleate and mixed using a VORTEX®. […]
For example, Propofol (1% v/v or 10 mg/mL) was dissolved in 100 mM sodium oleate in 5% (w/v) dextrose in water for injection. The resulting solution containing 1% Propofol was lyophilized. […]

concentration at which soluble and formulation clear [1]: 25000 µg/mL
solubility ([1]; concentration at which soluble and formulation clear): 18000 µg/mL (≈ 99.9 mM)
time remained soluble, formulation stable upon dilution [2]: up to 24 hours
Structure (SMILES): CC(=O)Oc1ccccc1C(=O)O [N-acetylsalicylic acid]

solubility ([1]; concentration at which soluble and formulation clear, 0.25 M sodium oleate): 1000 µg/mL
solubility ([1]; concentration at which soluble and formulation clear, oleic acid, then ethanolamine, dispersed in water for injection): 1000 µg/mL
time remained soluble, formulation stable upon dilution ([2]; 0.25 M sodium oleate, dilution 1:10 in saline, RP-HPLC): up to 24 hours
time remained soluble, formulation stable upon dilution ([2]; oleic acid/ethanolamine formulation, dilution 1:4 in saline, RP-HPLC): up to 24 hours
Structure (SMILES): C[C@H]1O[C@@H](O[C@H]2[C@@H](O)C[C@H](O[C@H]3[C@@H](O)C[C@H](O[C@H]4CC[C@@]5(C)[C@H](CC[C@@H]6[C@@H]5C[C@@H](O)[C@]5(C)[C@@H](C7=CC(=O)OC7)CC[C@]65O)C4)O[C@@H]3C)O[C@@H]2C)C[C@H](O)[C@@H]1O [Digoxin]

fold greater than the solubility in water [1]: 630-850 fold
concentration dissolved ([1]; 100 mM sodium oleate in 100% ethanol): 5000 µg/mL
solubility ([1]; solubilization): 6300 to 8500 µg/mL (≈ 7.38 to 9.95 mM)
time remained soluble, formulation stable upon dilution [2]: up to 24 hours
Structure (SMILES): CC(=O)O[C@H]1C(=O)[C@@]2(C)[C@H]([C@H](OC(=O)c3ccccc3)[C@]3(O)C[C@H](OC(=O)[C@H](O)[C@@H](NC(=O)c4ccccc4)c4ccccc4)C(C)=C1C3(C)C)[C@]1(OC(C)=O)CO[C@@H]1C[C@@H]2O [Paclitaxel]

Further lines, the compound ahead of its results:

Structure (SMILES): CC1(C)CCC2=C(O1)c1ccccc1C(=O)C2=O [β-Lapachone]
final concentration of the dispersed compound ([1]; OA-DMSO/EtOH mixture dispersed in equimolar sodium hydroxide solution): 1.5 mg/mL and 2.0 mg/mL and 2.5 mg/mL
concentration dissolved ([1]; in DMSO:OA 60%:40, 70%:30% or DMSO:EtOH:OA 30%:30%:40% v/v): 50000 µg/mL
concentration dissolved ([1]; in ethanol:oleic acid 70%:30%, 75%:25% or 80%:20% v/v): 25000 µg/mL

Structure (SMILES): CC(C)c1cccc(C(C)C)c1O [Propofol]
concentration dissolved ([1]; 100 mM sodium oleate in 5% (w/v) dextrose in water for injection (1% v/v)): 10000 µg/mL
stability of reconstituted lyophilized compound ([2]; 1% in 100 mM sodium oleate/D5W, lyophilized and reconstituted, RP-HPLC): stable without degradation or impurities
